These results are taken from patent US20050288316A1, “Beta-carbolines as growth hormone secretagogue receptor (GHSR) antagonists” (priority 2003, published 2005).

Series [1] concerns the target T1, human GHSR (Homo sapiens, UniProt Q92847).
T1 construct: host or cells: Chinese hamster ovary (CHO) cells
Put plainly: Functional FLIPR assay: inhibition of the ghrelin-evoked peak response in CHO cells stably expressing human GHSR (IC50, functional Ki). Particulars: functional Ki calculated from IC50 by Cheng-Prusoff equation, Fluo-4AM, ghrelin at EC70. The series is classed as cell-based. As to the method: Chinese hamster ovary cells (CHO), cell line (ES-410-F) purchased from Euroscreen, stably expressing the human GHSR seeded in 96 well plates are pre-loaded with Fluo-4AM fluorescent dye for 60 min before addition of test compounds (5 μM for primary screen). Fluorescent intensity is recorded using a Fluorometric imaging plate reader (FLIPR 98R 96-well format, Molecular Devices) and inhibition of the peak response evoked by ghrelin (EC70 concentration) is calculated.
Potency (IC50) determinations are performed utilizing the same functional assay as described for primary screening, applying the compounds in the concentration range of 170 pM to 10 μM or 340 pM to 20 μM.
The calculation of the functional Ki values for the inhibitors was performed by use of Activity Base. The Ki value is calculated from IC50 using the Cheng Prushoff equation (with reversible inhibition that follows the Michaelis-Menten equation): […] [Cheng, Y. C.; Prushoff, W. H. Biochem. Pharmacol. 1973, 22, 3099-3108]. […]

T1 sequence (Q92847 whole entry): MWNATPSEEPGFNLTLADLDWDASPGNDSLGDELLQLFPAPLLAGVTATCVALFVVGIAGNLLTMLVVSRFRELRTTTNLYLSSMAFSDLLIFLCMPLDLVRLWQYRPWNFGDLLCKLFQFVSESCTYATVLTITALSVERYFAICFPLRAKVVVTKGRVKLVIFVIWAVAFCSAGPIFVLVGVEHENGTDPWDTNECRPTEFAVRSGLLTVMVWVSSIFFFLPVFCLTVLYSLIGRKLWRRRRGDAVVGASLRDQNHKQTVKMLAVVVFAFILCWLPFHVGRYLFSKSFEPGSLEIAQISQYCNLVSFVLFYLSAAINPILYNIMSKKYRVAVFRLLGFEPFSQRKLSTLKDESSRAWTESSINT

What is called Ki is a dissociation constant, usually derived from enzyme kinetics or from competition with a known ligand. Consider `COc1ccc2[nH]c3c(c2c1)CCNC31CCN(CCOc2ccccc2)C1` (stereo not drawn) [Example 10, 6-Methoxy-1′-(2-phenoxyethyl)-2,3,4,9-tetrahydrospiro[beta-carboline-1,3′-pyrrolidine]], for which the Ki in series [1] was 60 nM. By melting point is commonly meant the temperature, or range, at which the solid turns liquid. In turn, `COc1ccc2[nH]c3c(c2c1)CCNC31CCNC1` (stereo not drawn) [Comparative Example 1, 6-Methoxy-2,3,4,9-tetrahydrospiro[beta-carboline-1,3′-pyrrolidine]] gave a melting point of over 180 °C. In the case of `Fc1ccc2c3c([nH]c2c1)C1(CCN(CCOc2ccccc2)C1)NCC3` (stereo not drawn) [Example 11, 7-Fluoro-1′-(2-phenoxyethyl)-2,3,4,9-tetrahydrospiro[beta-carboline-1,3′-pyrrolidine]], the Ki in series [1] is 572 nM. For the compound `CCCCNC(=O)N1CCc2c([nH]c3ccc(OC)cc23)C12CCN(CCOc1ccccc1)C2` (stereo not drawn) [Example 30, N-Butyl-6-methoxy-1′-(2-phenoxyethyl)-4,9-dihydrospiro[beta-carboline-1,3′-pyrrolidine]-2(3H)-carboxamide], in series [1], the Ki is 59 nM.
